# Data published in ChEMBL document CHEMBL3352501, “SAR analysis of new anti-TB drugs currently in pre-clinical and clinical development” (Eur J Med Chem, 2014).
# Key:
# [1] = tested on: Mycobacterium tuberculosis; test: Antitubercular activity against drug-resistant Mycobacterium tuberculosis clinical isolates assessed as growth inhibition; assay type: functional
# [2] = tested on: Mycobacterium tuberculosis; test: Antitubercular activity against multidrug-resistant Mycobacterium tuberculosis clinical isolates assessed as growth inhibition; assay type: functional
Compound,MIC [1] [µg/mL],MIC90 [2] [nM]
COc1ncccc1Nc1cc2nc3ccccc3n(-c3ccc(OC(F)(F)F)cc3)c-2c/c1=N\C1CCC(OC)CC1 (stereo not given),0.027,–
CCc1nc2ccc(Cl)cn2c1C(=O)NCc1ccc(N2CCC(c3ccc(OC(F)(F)F)cc3)CC2)cc1 [TELACEBEC],–,< 0.43
CC(C)/N=c1\cc2n(-c3ccc(Cl)cc3)c3ccccc3nc-2cc1Nc1ccc(Cl)cc1 [CLOFAZIMINE],0.108,–
CC(C)=CCC/C(C)=C/CNCCNC1C2CC3CC(C2)CC1C3 (stereo not given) [SQ109],0.2,–
COc1nc2ccc(Br)cc2cc1[C@@H](c1ccccc1)[C@@](O)(CCN(C)C)c1cccc2ccccc12 [BEDAQUILINE],0.002,–
